The source of these data is paper PMC6315376 (Cell Reports, 2019).

In one experiment the test system is phospho-AP2M1 (Thr156). The experiment can be described thus: Western blot of phospho-AP2M1. The settings on record: HEK293T cells, 2 hr, concentration-dependent. The class given is cell-based, human. In general terms: A western blot detects proteins with antibodies after separation by electrophoresis.
A further experiment deals with LRP6 surface levels. The experiment can be described thus: LRP6 surface staining by flow cytometry in HEK293T cells. Type of experiment: cell-based, human. The settings on record: co-treatment with WNT3A, 8 hr. Background: Flow cytometry measures light scatter and fluorescence of single cells or particles in a stream.
The next experiment has as its system LRP6. The experiment can be described thus: Western blot of endogenous LRP6 in HEK293T cells overexpressing AAK1. Type of experiment: cell-based, human. The settings on record: FLAG-AAK1 overexpression, 100 nm, 6 hr.
The test system of a further experiment is phospho-AP2M1 (T156). Kind of experiment: Western blot of phospho-AP2M1. Type of experiment: cell-based, human. The settings on record: HT1080 cells, 1 μM, without WNT3A.
Experiment [1] concerns β-catenin-activated Firefly luciferase reporter (BAR). Kind of experiment: BAR luciferase reporter assay in HT1080-B/R stable cells. The class given is cell-based, human. The settings on record: AAK1 siRNA 56 hr, then treatment 16 hr. (A reporter such as luciferase makes a cellular process visible.)
The next experiment has as its target PIP5K1C (Homo sapiens, UniProt O60331). The experiment can be described thus: PIP5K1C enzyme assay, ADP-Glo format. Type of experiment: biochemical.
Experiment [2] addresses T1, AAK1 (Homo sapiens, UniProt Q2M2I8). The experiment can be described thus: biochemical. The class given is binding.
Target sequence in this assay (Q2M2I8 31-396): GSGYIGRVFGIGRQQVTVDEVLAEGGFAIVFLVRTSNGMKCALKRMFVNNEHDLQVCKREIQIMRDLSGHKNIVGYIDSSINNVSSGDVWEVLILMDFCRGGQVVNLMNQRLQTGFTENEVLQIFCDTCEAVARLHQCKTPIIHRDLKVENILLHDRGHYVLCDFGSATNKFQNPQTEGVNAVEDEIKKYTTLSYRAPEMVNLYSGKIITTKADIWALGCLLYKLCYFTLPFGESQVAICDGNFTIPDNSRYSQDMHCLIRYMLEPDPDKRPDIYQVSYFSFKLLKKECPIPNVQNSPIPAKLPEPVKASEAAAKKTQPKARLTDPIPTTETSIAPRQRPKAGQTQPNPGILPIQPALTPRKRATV
In experiment [3] the target is T1, AAK1. The experiment can be described thus: biochemical. The settings on record: IC50 for inhibition of AAK1 enzymatic activity, 46 μM ATP (at Km).
Target sequence in this assay (Q2M2I8 27-365): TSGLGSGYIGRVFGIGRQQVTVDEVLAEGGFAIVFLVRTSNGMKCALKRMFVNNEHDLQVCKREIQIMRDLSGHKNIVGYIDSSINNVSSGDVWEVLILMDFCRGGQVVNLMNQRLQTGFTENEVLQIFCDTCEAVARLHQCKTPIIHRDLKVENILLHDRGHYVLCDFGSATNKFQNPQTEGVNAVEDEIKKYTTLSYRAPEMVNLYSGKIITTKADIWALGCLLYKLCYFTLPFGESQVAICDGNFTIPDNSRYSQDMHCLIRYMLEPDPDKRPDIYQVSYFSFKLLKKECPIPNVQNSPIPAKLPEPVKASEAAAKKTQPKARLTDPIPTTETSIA

PIP5K1C, sequence (O60331 whole entry): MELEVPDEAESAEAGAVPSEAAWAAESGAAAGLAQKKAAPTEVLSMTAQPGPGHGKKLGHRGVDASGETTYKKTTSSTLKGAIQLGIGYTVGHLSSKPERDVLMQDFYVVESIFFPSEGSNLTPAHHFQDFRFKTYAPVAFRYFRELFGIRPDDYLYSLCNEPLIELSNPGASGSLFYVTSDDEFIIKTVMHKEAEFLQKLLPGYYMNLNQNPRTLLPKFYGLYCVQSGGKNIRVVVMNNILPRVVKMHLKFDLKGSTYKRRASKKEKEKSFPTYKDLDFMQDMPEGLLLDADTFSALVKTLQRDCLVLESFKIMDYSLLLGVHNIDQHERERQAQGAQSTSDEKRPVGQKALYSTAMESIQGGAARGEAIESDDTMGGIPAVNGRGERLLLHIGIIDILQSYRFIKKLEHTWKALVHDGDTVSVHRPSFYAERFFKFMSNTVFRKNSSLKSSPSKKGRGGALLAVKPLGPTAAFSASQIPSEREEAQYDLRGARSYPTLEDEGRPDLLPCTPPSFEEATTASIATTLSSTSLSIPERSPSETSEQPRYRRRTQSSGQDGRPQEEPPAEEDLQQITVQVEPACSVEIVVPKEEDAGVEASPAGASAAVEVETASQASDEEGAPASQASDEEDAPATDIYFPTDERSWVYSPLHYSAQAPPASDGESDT

Regarding `CCN(CC)S(=O)(=O)Nc1cccc(-c2ccc3c(NC(=O)C4CC4)n[nH]c3c2)c1` [SGC-AAK1-1, N-(6-(3-((N,N-diethylsulfamoyl)amino)phenyl)-1H-indazol-3-yl)cyclopropanecarboxamide], the “phosphorylation of the AP2M1 subunit at Thr156” value with phospho-AP2M1 (Thr156) is reported as “inhibited the phosphorylation of the AP2M1 subunit at Thr156”. For the same molecule, the “rescue of the WNT3A-induced decrease of LRP6 surface levels” value with LRP6 surface levels is “rescued”.
On to `CO/C1=C\C(C)=C\[C@@H](C)[C@@H](O)[C@@H](C)C/C(C)=C/C=C/[C@H](OC)[C@@H]([C@@H](C)[C@@H](O)[C@H](C)[C@@]2(O)C[C@@H](O)[C@H](C)[C@@H](C(C)C)O2)OC1=O` [bafilomycin A1], for which the “AAK1-driven downregulation of LRP6” value in the experiment on LRP6 is “rescued AAK1-driven downregulation of LRP6”.
Consider `Cc1c[nH]c(-c2cnc(NCCNc3ccc(C#N)cn3)nc2-c2ccc(Cl)cc2Cl)n1` [CHIR99021], for which, in the experiment with phospho-AP2M1 (T156), the pAP2M1 levels entry is recorded as “did not result in elevated pAP2M1 levels”.
For the molecule `CN(C)CCCN1c2ccccc2Sc2ccc(Cl)cc21` [chlorpromazine], the “WNT signaling (BAR) induced by AAK1 silencing” value in experiment [1] is listed as “suppressed WNT signaling induced by AAK1 silencing”.
As for `CC(C)C(=O)Nc1n[nH]c2cc(-c3cccc(NS(=O)(=O)C4CC4)c3)ccc12` [34A, N-(6-(3-(cyclopropanesulfonamido)phenyl)-1H-indazol-3-yl)isobutyramide], the values for the concentration for half-maximal inhibition (IC50) at PIP5K1C and on AAK1 [3] were 3.6 µM and more than 1000 nM, respectively. The molecule further registered a Ki on AAK1 [2] of 2000 nM.

In general, IC50 refers to the concentration at which inhibition is half-maximal. A higher IC50 goes with weaker potency. The Ki is a dissociation constant, usually derived from enzyme kinetics or from competition with a known ligand. Read a high Ki as a looser hold on the target.
